{
  "source": "paper PMC8235661",
  "about": "“Photoelectric Dye, NK-5962, as a Potential Drug for Preventing Retinal Neurons from Apoptosis: Pharmacokinetic Studies Based on Review of the Evidence” (Life, 2021)",
  "key": {"[1]": {"assay": "Tests for the biological evaluation of medical devices (ISO 10993)", "details": "data not shown"}, "bacterial": {"system": "bacterial", "assay": "Bacterial reverse mutation test"}, "[2]": {"assay": "Unbound fraction by equilibrium dialysis, rat plasma", "type": "in vitro ADME", "details": "1 μM, equilibrium dialysis 37 °C 4 h", "description": "An equilibrium dialysis apparatus, Rapid Equilibrium Dialysis (RED) Device Single-Use Plate with Inserts, 8K MWCO (ThermoFisher Scientific, Waltham, MA, USA), was used to determine the unbound fraction for each compound in human plasma, rat plasma, and medium containing 10% fetal bovine serum (FBS). Plasma or medium was mixed with the test compound (1 μM) and 200 μL aliquots were loaded into the apparatus and dialyzed versus 350 μL of 100 mM phosphate buffer (pH 7.4) at 37 °C for 4 h by rotation at 1000 rpm. The unbound fraction was calculated as the ratio of receiver side (buffer) to donor side (plasma) concentrations."}, "[3]": {"assay": "Hepatic microsomal stability assay, rat", "type": "in vitro ADME", "description": "The disappearance of the parent compound over time was measured by using the amount of drug at time zero as a reference. After 5 min of preincubation, 1 mM NADPH (final concentration, the same applies to the following) was added to a mixture containing 1 μM of the test compound, 0.2 mg/mL of rat or human liver microsomes (Sekisui XenoTech, LLC, Kansas City, KS), 1 mM EDTA, and 100 mM phosphate buffer (pH 7.4) and then incubated at 37 °C for 30 min by rotation at 60 rpm. An aliquot of 50 μL of the incubation mixture was sampled and added to 250 μL of chilled acetonitrile/internal standard (IS). After the centrifugation for 15 min at 3150× g at 4 °C, the supernatants were analyzed by LC-MS/MS. Hepatic microsomal stability (mL/min/kg, CLint) was calculated according to the previous report and 44.8 or 48.8 mg microsomal protein/g liver and 40.0 or 25.7 g liver/kg body weight were used as scaling factors for the rat or human, respectively."}, "[4]": {"assay": "PAMPA (parallel artificial membrane permeability assay)", "type": "in vitro ADME", "details": "PAMPA, pH 6.5; 0.2 μM test compound, 37 °C, 4 h", "description": "In order to determine the passive membrane diffusion rates, the Corning Gentest Pre-coated PAMPA Plate System was used in the PAMPA test. […] The acceptor plate was then placed on top of the donor plate and incubated at 37 °C without agitation for 4 h. At the end of the incubation, the plates were separated and the solutions from each well of both the acceptor plate and the donor plate were transferred to 96-well plates and mixed with acetonitrile. The final concentrations of compound in both the donor wells and acceptor wells, as well as the concentrations of the initial donor solutions, were analyzed by LC-MS/MS. The permeability of the compound was calculated according to the previous report."}, "[5]": {"assay": "Reactive oxygen species (ROS) assay under simulated sunlight", "type": "physicochemical", "description": "The ROS assay was designed to detect both singlet oxygen and superoxide generated from photo-irradiated chemicals. Briefly, singlet oxygen was measured in aqueous solution by spectrophotometrically monitoring the bleaching of p-nitrosodimethylaniline at 440 nm using imidazole as a selective acceptor of singlet oxygen. Samples containing the tested chemical (20 or 200 μM), p-nitrosodimethylaniline (50 μM), and imidazole (50 μM) in 20 mM sodium phosphate buffer (pH 7.4) were mixed in a tube. Each sample in 200 μL was transferred into a well of a plastic 96-well plate (clear, untreated, and flat-bottomed) and checked for precipitation under a microscope with an objective lens (×100) before light exposure. The plate was subjected to a measurement of absorbance at 440 nm using a microplate spectrophotometer. The plate was fixed in the quartz reaction container with a quartz cover and then irradiated with the simulated sunlight (ultraviolet A/B and visible light, 250 W/m^2, Suntest CPS plus, Atlas Material Testing Technology, Mount Prospect, IL, USA) for 1 h. After agitation on a plate shaker, the UV absorbance at 440 nm was measured. For the determination of superoxide, samples containing the test chemical (20 or 200 μM) and nitroblue tetrazolium (50 μM) in 20 mM sodium phosphate buffer were irradiated with the simulated sunlight for 1 h and the reduction in nitroblue tetrazolium was measured by the increase in absorbance at 560 nm in the same manner as the singlet oxygen determination. Experiments were performed in triplicate wells in three independent runs. As the final concentration, 200 μM test chemical solutions should be subjected to the ROS assay. However, when precipitation could be observed at 200 μM under the optical microscope, additional experiments should be performed under appropriate dilution (20, 50, or 100 μM)."}, "[6]": {"details": "20 µM, simulated sunlight 1 h, mean ± standard deviation (n = 3)"}},
  "data": [
    {"compound": "CCCCN(CCCC)c1ccc(C=Cc2sc3ccccc3[n+]2CC(=O)O)cc1.[Br-]", "note": "[NK-5962, 2-[2-[4-(dibutylamino)phenyl]ethenyl]-3-carboxymethylbenzothiazolium bromide]", "values": [
      {"measurement": "toxicity in all tests for the biological evaluation of medical devices (ISO 10993)", "setting": "[1]", "result": "safe"},
      {"measurement": "genetic toxicity, bacterial reverse mutation test", "setting": "bacterial", "result": "not toxic"},
      {"measurement": "Protein-Binding (Non-Binding Ratio) Rat Plasma", "setting": "[2]", "result": 0.022},
      {"measurement": "Microsome Metabolic Stability Rat", "setting": "[3]; 1 μM, 0.2 mg/mL microsomes, 1 mM NADPH, 30 min", "result": 151.9, "unit": "µL/min/mg"},
      {"measurement": "metabolic stability (in words)", "setting": "[3]; rat liver microsomes", "result": "moderate metabolic stability"},
      {"measurement": "stability in the absence of the coenzyme NADPH", "setting": "[3]; rat liver microsomes, without NADPH", "result": "stable"},
      {"measurement": "CLint scaled at 1 μM", "setting": "[3]; rat, liver microsomes, pH 7.4, 1 μM, 0.2 mg/mL microsomes, 1 mM NADPH, 30 min, read-out: Microsome Metabolic Stability Rat (CLint)", "result": 272, "unit": "mL/min/kg"},
      {"measurement": "Papp at 4 h, 0.2 μM", "setting": "[4]", "result": 0.31, "unit": "×10⁻⁶ cm/s"},
      {"measurement": "Reactive Oxygen Species Generation Singlet oxygen", "setting": "[5]; [6]", "result": "93 ± 14 ΔA440 × 1000"},
      {"measurement": "Reactive Oxygen Species Generation Superoxide", "setting": "[5]; [6]", "result": "Not detected"},
      {"measurement": "phototoxicity conclusion from ROS assay", "setting": "[5]; low level of reactive oxygen species generation", "result": "less phototoxic"}
    ]}
  ]
}
